Test results: PubChem BioAssay (NCI)
Values joined by “and” are separate entries in the source; they are usually repeats but may differ in a detail not shown here. Equal entries are not always repeated.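 Results reflect a 48-hour exposure of cells in 96-well plates to compound at five concentrations. GI50 = concentration required for 50% inhibition of growth. The concentration for full growth arrest is given as TGI.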

How the values were obtained:
Assay in all cases: inhibition of tumour cell growth, NCI panel, 48 h
786-0 renal = system: 786-0 renal
A498 renal = system: A498 renal
BT-549 breast = system: BT-549 breast
HCT-15 colon = system: HCT-15 colon
HOP-62 NSCLC = system: HOP-62 NSCLC
HS 578T breast = system: HS 578T breast
LOX IMVI melanoma = system: LOX IMVI melanoma
PC-3 prostate = system: PC-3 prostate
SK-OV-3 ovarian = system: SK-OV-3 ovarian
UO-31 renal = system: UO-31 renal

SMILES | GI50 (786-0 renal) | TGI (786-0 renal) | GI50 (A498 renal) | TGI (A498 renal) | GI50 (BT-549 breast) | TGI (BT-549 breast) | GI50 (HCT-15 colon) | TGI (HCT-15 colon) | GI50 (HOP-62 NSCLC) | TGI (HOP-62 NSCLC) | GI50 (HS 578T breast) | TGI (HS 578T breast) | GI50 (LOX IMVI melanoma) | TGI (LOX IMVI melanoma) | GI50 (PC-3 prostate) | TGI (PC-3 prostate) | GI50 (SK-OV-3 ovarian) | TGI (SK-OV-3 ovarian) | GI50 (UO-31 renal) | TGI (UO-31 renal)
Cc1cc(NCCCCNc2ccnc3cc(Cl)ccc23)nc(Nc2ccc(C(=O)N3CCCC3)cc2)n1 | 1.57 µM | 3.02 µM | 1.51 µM | 7.09 µM | 1.83 µM | 4.38 µM | 2.28 µM | 6.75 µM | 2.21 µM | 4.74 µM | 1.85 µM | 4.74 µM | 1.48 µM | 3.05 µM | 3.79 µM | 10.9 µM | 3.49 µM | 9.11 µM | 1.73 µM | 4.16 µM
COc1cc2c3c(n(CCCCNC(=O)OCC4c5ccccc5-c5ccccc54)c(=O)c2cc1OC)-c1cc2c(cc1C3=O)OCO2 | 4.67 µM | 28.1 µM | > 100 µM | > 100 µM | 79.1 µM | > 100 µM | 12.9 µM | 80.3 µM | 5.62 µM | 34 µM | 80.7 µM | > 100 µM | 7.08 µM | > 100 µM | 13.7 µM | 55.6 µM | > 100 µM | > 100 µM | 49.3 µM | > 100 µM
Cc1cc(O)ccc1O | 21.2 µM | 75.8 µM | 79.9 µM | > 100 µM | 16.3 µM | > 100 µM | 16.6 µM | 34.8 µM | 34.8 µM | > 100 µM | 26.7 µM | > 100 µM | 13.7 µM | 27.4 µM | 32.8 µM | > 100 µM | 72.9 µM | > 100 µM | 13.4 µM | 26.2 µM
CS(=O)(=O)Nc1cccc(-c2ccc3c(NC(=O)C4CC4)n[nH]c3c2)c1 | 12.2 µM | > 25 µM | 4.32 µM | > 25 µM | 5.86 µM | > 25 µM | 7.29 µM | > 25 µM | 1.16 µM | > 21.5 µM | 2.22 µM | > 25 µM | 1.82 µM | > 25 µM | 3.24 µM | > 25 µM | 3.92 µM | 15.7 µM | 24.8 µM | > 25 µM
O=C1CSC(=S)N1Cc1cccnc1 | 3.67 µM | 11.2 µM | 22.7 µM | 56.2 µM | 18.6 µM | 44.3 µM | 2.87 µM | 11.8 µM | 47 µM | > 100 µM | 17 µM | 66.1 µM | 2.58 µM | 12.5 µM | 16.2 µM | > 100 µM | 35.8 µM | > 100 µM | 4.61 µM | 17.6 µM
O=c1[nH]ccc2nc(-c3ccc(CN4CCC(c5nc(-c6ccccn6)n[nH]5)CC4)cc3)c(-c3ccccc3)cc12 | 0.737 µM | 18.1 µM | < 0.0345 µM | 0.355 µM | 0.711 µM | 30 µM | 16.5 µM | > 100 µM | 27.8 µM | > 100 µM | 0.592 µM | 16.5 µM | 19.3 µM | > 94.2 µM | 0.153 µM | > 100 µM | 0.124 µM | > 100 µM | 0.975 µM | > 100 µM
CCCCCCCCCCCCCCCCOC(=O)c1c(C)[nH]c(/C=C2\N=C(c3ccc[nH]3)C=C2OC)c1C | 1.07 µM | 14.4 µM | 1.51 µM | 5.47 µM | 2.23 µM | 20.4 µM | 2.21 µM | > 100 µM | 2.89 µM | 12.8 µM | 1.41 µM | 9.38 µM | 0.0346 µM | 0.144 µM | 0.162 µM | > 100 µM | 2.35 µM | 5.9 µM | 1.21 µM | 17.1 µM
O=C1/C(=C/c2ccc([N+](=O)[O-])o2)Oc2ccccc21 | 2.06 µM | 4.12 µM | 1.93 µM | 4.4 µM | 1.76 µM | 3.74 µM | 0.341 µM | 1.43 µM | 2.22 µM | 6.42 µM | 2.88 µM | 21.4 µM | 1.42 µM | 2.93 µM | 2.25 µM | 7.12 µM | 6.4 µM | 18.2 µM | 1.07 µM | 2.86 µM
O=C(NCC(=O)N1CC[C@H](NC2CCC(O)(c3ccc(-c4ncccn4)cn3)CC2)C1)c1cccc(C(F)(F)F)c1 (some centres undefined) | > 100 µM | > 100 µM | 24.5 µM | > 100 µM | 34.9 µM | > 100 µM | 52.8 µM | > 100 µM | 95.1 µM | > 100 µM | 48.9 µM | > 100 µM | 32.3 µM | > 100 µM | 51.6 µM | > 100 µM | > 100 µM | > 100 µM | 52.3 µM | > 100 µM
CO/N=C(\COc1ccc2c(c1)oc(=O)c1cc(OC)ccc12)c1cccc(OC)c1 | > 100 µM | > 100 µM | 80.2 µM | > 100 µM | > 100 µM | > 100 µM | > 100 µM | > 100 µM | > 100 µM | > 100 µM | > 100 µM | > 100 µM | > 100 µM | > 100 µM | > 100 µM | > 100 µM | > 100 µM | > 100 µM | > 100 µM | > 100 µM
c1ccc2c(Nc3ccc(Oc4ccc(Nc5c6ccccc6nc6ccccc56)cc4)cc3)c3ccccc3nc2c1 | – | 0.0305 µM | – | 3.85 µM | 2.07 µM and 1.87 µM | 4.54 µM and 4.4 µM | 0.019 µM and 0.017 µM | 0.0358 µM and 0.0379 µM | 0.301 µM and 1.74 µM | 1.09 µM and 3.12 µM | – | 5.04 µM | 0.0148 µM | – | – | 0.366 µM | – | 4.21 µM | 1.37 µM and 1.19 µM | 2.66 µM and 2.6 µM
CCCC(=O)Nc1cc([N+](=O)[O-])c([N+](=O)[O-])cc1OC | – | > 100 µM | – | 32.5 µM | – | 31 µM | – | > 100 µM | – | 28.1 µM | – | 46.5 µM | – | > 100 µM | – | > 100 µM | – | 26.8 µM | – | 3.13 µM
